# Data taken from ChEMBL document CHEMBL5465560, “Selectivity Literature for EUbOPEN Chemogenomic Library” (2024).
# How the values were obtained:
# [1] = target: Mitogen-activated protein kinase 7 (Homo sapiens) (UniProt Q13164); assay: Selectivity interaction (Kinase panel (KiNativ target engagement assay in Jurkat cells)) EUB0001635a MAPK7; format: cell-based; conditions: Selectivity number of off-targets 0.0, Selectivity number of targets 233.0, Source Knowledge https://www.sciencedirect.com/science/article/pii/S2451945619300674?via%3Dihub, at 1 µM
# Chain of Mitogen-activated protein kinase 7 (Homo sapiens) (Q13164 2-816 limits assumed): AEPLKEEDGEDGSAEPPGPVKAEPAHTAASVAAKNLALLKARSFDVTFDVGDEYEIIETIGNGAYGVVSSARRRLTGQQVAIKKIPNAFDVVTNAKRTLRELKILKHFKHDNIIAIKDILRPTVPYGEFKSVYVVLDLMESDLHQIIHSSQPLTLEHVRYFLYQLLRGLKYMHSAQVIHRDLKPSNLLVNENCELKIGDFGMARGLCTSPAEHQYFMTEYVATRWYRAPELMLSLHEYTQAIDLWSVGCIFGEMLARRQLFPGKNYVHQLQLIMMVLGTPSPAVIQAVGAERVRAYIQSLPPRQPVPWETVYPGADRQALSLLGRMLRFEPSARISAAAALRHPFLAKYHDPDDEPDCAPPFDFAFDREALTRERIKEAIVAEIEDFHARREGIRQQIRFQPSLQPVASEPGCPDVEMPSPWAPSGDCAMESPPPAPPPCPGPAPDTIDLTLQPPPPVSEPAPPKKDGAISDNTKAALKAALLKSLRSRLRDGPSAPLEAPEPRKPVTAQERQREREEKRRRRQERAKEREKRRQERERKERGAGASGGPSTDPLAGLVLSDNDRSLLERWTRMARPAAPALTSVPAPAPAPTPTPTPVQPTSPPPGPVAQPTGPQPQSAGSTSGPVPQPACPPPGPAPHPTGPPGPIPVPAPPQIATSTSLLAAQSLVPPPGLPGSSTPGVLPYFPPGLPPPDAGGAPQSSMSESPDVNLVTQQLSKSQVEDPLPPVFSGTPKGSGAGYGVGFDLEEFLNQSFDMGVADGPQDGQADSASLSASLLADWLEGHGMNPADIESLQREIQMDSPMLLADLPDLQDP
# [2] = target: Leukocyte tyrosine kinase receptor (Homo sapiens, UniProt P29376); assay: Selectivity interaction (KinomeScan (DiscoverX)) EUB0000045b LTK
# Chain of Leukocyte tyrosine kinase receptor (P29376 whole entry): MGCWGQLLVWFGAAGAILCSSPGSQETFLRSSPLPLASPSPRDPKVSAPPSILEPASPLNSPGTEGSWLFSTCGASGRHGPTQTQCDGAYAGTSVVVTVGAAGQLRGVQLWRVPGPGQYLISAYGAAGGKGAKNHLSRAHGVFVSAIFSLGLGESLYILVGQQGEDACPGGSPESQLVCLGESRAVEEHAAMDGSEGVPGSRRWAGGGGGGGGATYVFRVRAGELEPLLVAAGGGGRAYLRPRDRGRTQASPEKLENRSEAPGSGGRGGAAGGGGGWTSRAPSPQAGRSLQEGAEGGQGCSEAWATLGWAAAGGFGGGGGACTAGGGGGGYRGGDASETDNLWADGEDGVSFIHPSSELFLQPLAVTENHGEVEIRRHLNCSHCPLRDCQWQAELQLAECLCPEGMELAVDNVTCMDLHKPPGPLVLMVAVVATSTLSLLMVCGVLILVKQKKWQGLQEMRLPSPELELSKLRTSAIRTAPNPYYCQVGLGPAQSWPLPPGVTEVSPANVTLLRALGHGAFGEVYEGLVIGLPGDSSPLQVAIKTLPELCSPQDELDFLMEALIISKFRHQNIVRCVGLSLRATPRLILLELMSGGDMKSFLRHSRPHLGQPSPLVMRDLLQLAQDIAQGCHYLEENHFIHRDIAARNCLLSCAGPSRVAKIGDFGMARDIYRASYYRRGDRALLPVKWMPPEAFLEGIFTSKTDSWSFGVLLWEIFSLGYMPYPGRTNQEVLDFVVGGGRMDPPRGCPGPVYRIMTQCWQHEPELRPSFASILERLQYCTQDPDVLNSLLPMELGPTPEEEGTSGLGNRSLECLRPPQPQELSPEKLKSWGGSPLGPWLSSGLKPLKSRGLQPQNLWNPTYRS
# [3] = target: ALK tyrosine kinase receptor (Homo sapiens, UniProt Q9UM73); assay: (§1) Selectivity interaction (KinomeScan (DiscoverX)) EUB0001079a ALK; conditions: at 1 µM
# [4] = test system: ALK tyrosine kinase receptor (Homo sapiens), Q9UM73 [C1156Y]; assay: as §1; conditions: at 1 µM
# Chain of ALK tyrosine kinase receptor (Homo sapiens), Q9UM73 [C1156Y] (Q9UM73 whole entry C1156Y, looked up): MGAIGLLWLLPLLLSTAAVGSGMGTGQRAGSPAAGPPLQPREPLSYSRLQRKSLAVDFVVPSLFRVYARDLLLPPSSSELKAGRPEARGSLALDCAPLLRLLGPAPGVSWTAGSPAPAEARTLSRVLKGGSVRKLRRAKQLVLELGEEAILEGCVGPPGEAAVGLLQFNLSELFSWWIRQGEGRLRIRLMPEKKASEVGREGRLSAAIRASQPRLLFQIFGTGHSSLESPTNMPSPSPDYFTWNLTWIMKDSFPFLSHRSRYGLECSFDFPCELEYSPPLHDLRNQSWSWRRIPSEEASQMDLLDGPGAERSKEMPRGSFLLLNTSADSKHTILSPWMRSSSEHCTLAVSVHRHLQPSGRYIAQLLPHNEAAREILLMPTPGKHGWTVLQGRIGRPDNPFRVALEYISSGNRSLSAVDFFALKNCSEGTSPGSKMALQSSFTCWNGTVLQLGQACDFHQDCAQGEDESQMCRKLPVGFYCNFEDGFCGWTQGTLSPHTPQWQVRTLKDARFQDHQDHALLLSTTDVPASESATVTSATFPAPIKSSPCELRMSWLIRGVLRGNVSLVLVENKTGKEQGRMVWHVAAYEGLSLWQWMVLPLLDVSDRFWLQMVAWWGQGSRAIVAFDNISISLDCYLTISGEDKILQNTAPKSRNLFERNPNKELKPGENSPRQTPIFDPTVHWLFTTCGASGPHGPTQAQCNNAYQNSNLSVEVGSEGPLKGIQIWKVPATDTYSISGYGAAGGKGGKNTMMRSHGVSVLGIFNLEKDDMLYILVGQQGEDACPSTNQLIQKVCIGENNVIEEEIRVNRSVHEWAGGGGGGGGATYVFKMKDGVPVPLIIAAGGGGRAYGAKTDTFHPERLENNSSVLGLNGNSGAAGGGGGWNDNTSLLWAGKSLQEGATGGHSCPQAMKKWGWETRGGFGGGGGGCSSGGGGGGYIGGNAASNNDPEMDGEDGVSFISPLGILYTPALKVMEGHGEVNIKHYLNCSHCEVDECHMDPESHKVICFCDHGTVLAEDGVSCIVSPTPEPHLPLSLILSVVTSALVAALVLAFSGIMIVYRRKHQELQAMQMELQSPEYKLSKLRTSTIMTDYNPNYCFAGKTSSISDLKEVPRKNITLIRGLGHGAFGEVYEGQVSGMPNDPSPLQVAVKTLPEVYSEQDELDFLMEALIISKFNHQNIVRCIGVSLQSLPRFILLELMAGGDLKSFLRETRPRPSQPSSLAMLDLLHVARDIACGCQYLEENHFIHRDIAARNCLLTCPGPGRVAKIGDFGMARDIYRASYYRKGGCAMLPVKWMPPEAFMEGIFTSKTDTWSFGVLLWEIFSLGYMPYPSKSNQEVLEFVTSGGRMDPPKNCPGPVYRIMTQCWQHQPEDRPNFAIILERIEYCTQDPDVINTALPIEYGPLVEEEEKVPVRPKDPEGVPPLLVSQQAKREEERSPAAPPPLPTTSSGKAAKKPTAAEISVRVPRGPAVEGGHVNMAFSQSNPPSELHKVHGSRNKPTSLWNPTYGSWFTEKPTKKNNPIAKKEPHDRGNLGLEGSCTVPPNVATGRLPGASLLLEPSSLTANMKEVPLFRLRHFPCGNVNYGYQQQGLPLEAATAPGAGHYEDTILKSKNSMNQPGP
# [5] = test system: ALK tyrosine kinase receptor (Homo sapiens), Q9UM73 [L1196M]; assay: as §1; conditions: at 1 µM
# Chain of ALK tyrosine kinase receptor (Homo sapiens), Q9UM73 [L1196M] (Q9UM73 whole entry L1196M, looked up): as the sequence (Q9UM73 whole entry C1156Y, looked up) above, with Y1156C, L1196M counted along it
# [6] = target: T1, Dual specificity mitogen-activated protein kinase kinase 5 (Homo sapiens) (UniProt Q13163); assay: Selectivity interaction (LanthaScreen Eu Kinase Binding Assay) EUB0001632a MAP2K5; conditions: at 10 µM
# T1 sequence (whole entry): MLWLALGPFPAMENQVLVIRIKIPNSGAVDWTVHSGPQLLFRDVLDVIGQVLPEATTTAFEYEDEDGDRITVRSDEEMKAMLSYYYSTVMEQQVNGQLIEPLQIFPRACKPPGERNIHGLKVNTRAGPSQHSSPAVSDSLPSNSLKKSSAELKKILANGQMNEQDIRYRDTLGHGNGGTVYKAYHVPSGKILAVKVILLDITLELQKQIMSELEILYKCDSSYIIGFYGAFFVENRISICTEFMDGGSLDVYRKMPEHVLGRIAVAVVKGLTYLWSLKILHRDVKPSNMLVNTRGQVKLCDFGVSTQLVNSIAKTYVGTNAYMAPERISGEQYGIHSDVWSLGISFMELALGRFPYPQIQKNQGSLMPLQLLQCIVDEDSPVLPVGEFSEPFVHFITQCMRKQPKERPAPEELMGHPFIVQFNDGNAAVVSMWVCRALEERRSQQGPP
# [7] = target: T2, Aurora kinase C (Homo sapiens) (UniProt Q9UQB9); assay: Selectivity interaction (ProQinase) EUB0000171b AURKC
# T2 sequence (whole entry): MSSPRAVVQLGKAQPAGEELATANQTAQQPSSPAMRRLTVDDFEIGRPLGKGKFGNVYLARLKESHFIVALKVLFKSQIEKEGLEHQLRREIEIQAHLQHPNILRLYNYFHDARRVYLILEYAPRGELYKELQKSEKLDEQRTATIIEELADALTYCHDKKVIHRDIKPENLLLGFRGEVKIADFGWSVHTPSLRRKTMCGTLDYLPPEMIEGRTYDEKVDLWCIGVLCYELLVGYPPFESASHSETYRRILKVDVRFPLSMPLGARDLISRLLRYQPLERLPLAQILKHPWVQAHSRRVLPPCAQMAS
# [8] = target: Serine/threonine-protein kinase MARK1 (Homo sapiens) (UniProt Q9P0L2); assay: Selectivity interaction (SelectScreen profiling (Invitrogen)) EUB0000607a MARK1; conditions: at 2 µM
# [9] = target: T3, Mitogen-activated protein kinase kinase kinase 5 (Homo sapiens) (UniProt Q99683); conditions: at 10 µM
# T3 sequence (whole entry): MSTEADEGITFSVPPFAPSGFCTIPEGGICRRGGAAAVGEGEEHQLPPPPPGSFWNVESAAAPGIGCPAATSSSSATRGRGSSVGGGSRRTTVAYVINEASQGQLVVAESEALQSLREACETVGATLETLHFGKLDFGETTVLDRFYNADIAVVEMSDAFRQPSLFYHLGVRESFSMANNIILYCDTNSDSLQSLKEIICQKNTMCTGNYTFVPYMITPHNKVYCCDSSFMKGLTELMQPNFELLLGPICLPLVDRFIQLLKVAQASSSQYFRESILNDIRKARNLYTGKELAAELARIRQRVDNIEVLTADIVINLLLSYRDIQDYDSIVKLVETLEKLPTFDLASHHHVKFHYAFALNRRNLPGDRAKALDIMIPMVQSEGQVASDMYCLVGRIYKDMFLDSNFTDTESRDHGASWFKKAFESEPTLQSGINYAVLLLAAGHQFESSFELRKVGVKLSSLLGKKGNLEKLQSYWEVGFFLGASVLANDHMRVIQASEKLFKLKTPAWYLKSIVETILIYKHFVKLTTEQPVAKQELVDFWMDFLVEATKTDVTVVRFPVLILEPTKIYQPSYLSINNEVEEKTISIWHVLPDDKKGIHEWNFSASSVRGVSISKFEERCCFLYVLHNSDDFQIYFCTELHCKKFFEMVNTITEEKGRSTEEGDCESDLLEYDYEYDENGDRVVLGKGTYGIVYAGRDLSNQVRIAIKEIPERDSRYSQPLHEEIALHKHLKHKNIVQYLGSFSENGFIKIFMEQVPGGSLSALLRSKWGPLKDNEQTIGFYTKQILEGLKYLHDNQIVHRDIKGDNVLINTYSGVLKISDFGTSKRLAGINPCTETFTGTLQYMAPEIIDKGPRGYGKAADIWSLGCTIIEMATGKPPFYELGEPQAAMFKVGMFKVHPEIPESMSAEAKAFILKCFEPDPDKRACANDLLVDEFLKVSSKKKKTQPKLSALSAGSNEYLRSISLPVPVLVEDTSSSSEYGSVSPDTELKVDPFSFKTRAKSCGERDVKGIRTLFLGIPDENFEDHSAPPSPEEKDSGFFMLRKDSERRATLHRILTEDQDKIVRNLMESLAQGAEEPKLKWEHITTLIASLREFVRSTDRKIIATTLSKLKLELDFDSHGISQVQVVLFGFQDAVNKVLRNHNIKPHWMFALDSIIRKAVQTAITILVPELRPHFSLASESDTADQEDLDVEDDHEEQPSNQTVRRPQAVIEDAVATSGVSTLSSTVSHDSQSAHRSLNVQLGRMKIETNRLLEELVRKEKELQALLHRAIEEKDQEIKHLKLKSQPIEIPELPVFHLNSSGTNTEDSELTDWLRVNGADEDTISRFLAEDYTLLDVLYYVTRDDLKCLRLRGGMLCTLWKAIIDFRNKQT
# [10] = target: Receptor tyrosine-protein kinase erbB-2 (Homo sapiens, UniProt P04626); assay: Selectivity interaction (KinomeScan (DiscoverX)) EUB0000092b ERBB2; conditions: at 10 µM
# Chain of Receptor tyrosine-protein kinase erbB-2 (P04626 whole entry): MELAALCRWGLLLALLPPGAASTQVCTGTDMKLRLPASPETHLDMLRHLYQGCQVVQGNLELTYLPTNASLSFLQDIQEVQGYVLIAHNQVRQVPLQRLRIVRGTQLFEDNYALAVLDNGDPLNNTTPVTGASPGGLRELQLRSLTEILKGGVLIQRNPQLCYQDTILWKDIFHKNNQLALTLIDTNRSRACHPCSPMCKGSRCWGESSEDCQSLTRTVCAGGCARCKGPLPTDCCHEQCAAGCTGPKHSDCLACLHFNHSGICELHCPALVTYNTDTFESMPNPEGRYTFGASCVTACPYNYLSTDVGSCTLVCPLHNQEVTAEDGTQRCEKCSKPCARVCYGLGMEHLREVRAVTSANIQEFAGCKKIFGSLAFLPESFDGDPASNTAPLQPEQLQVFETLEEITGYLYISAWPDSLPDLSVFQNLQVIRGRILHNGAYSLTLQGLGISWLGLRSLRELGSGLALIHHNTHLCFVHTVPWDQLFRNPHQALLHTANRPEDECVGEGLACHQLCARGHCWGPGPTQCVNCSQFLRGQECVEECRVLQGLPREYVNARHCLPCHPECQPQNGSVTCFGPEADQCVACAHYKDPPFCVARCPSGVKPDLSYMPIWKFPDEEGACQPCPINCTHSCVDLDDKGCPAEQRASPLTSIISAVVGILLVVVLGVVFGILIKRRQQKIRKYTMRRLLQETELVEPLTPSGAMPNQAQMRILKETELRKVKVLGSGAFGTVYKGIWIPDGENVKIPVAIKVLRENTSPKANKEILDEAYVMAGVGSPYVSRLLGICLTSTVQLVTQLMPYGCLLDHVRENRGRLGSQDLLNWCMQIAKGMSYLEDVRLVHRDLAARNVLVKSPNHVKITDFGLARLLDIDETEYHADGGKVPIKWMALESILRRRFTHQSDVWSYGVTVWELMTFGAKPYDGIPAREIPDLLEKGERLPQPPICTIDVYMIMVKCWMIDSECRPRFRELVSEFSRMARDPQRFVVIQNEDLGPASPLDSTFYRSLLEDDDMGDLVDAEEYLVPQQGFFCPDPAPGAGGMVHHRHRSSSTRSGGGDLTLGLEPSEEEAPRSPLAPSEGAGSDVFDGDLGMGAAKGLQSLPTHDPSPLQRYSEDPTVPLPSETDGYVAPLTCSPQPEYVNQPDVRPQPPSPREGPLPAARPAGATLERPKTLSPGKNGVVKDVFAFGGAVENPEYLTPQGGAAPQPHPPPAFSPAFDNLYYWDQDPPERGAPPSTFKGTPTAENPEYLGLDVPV
smiles,measurement,setting,value
C=CC(=O)Nc1ccc(C(=O)Nc2[nH]nc3c2CN(C(=O)N[C@H](CN(C)C)c2ccccc2)C3(C)C)cc1,% of engagement,[1],-3.1%
C=CC(=O)Nc1cc(-n2c(=O)ccc3cnc4ccc(-c5ccc(NS(C)(=O)=O)cc5)cc4c32)ccc1C,% of control,[2]; at 1 µM,100%
same,% of control,[2]; at 10 µM,100%
Nc1cnc(N2CCc3cc(S(=O)(=O)Nc4c(F)cc(Cl)cc4F)cc(N4CCCC4=O)c32)nc1 [TP-020n],% of control,[3],100%
same,% of control,[4],100%
same,% of control,[5],81%
Cn1cc(-n2cnc3c(NCc4nc5cc(Cl)c(Cl)cc5[nH]4)nc(N4CCOCC4)nc32)cn1,% of inhibition,[6],0.023%
C=CC(=O)Nc1cccc(C(=O)Nc2ccc(Nc3cc(-c4[nH]c(SC)nc4C)ccn3)cc2)c1,% of control,[7]; at 1 µM,86%
same,% of control,[7]; at 5 µM,57%
CNC(=O)Nc1ccc(-c2nc(N3CC4CCC(C3)O4)c3cnn(C4CCC5(CC4)OCCO5)c3n2)cc1,% of inhibition,[8],13%
CCN(CC)CCCCNc1ncc2cc(-c3cc(OC)cc(OC)c3)c(NC(=O)NC(C)(C)C)nc2n1,% of control,[9],100%
CCC(=O)N1CCN(c2ccc(-n3c(=O)ccc4cnc5ccc(-c6cnc7ccccc7c6)cc5c43)cc2C(F)(F)F)CC1,% of control,[10],91%
